Consider 24 compounds from patent US20240025906A1 (NEURON23, INC., priority 2022, published 2024).

pIC50, pKd: −log10 of the molar value. Some results are limits rather than exact numbers.

Experiment [1] deals with T1, TYK2 JH2 (Homo sapiens, UniProt P29597).
T1 construct: purchased DiscoverX (KINOMEscan KdELECT service); host or cells: E. coli BL21-derived (T7 phage display) or HEK-293
As to the kind of experiment: TYK2 JH2 binding assay (KINOMEscan KdELECT competitive binding). As to conditions: TYK2 JH2 domain, KINOMEscan KdELECT (Assay A); read-out: Biochemical TYK2_JH2_Kd. The method, boiled down:
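Test compounds were titrated in 11 three-fold steps against JH2 fragment captured on ligand-loaded magnetic beads, with 1 h incubation at room temperature and DMSO at 0.9%. Eluted kinase was quantified by qPCR, and Kd was fitted from the dose series.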

The subject of experiment [2] is JAK1/TYK2 pSTAT5 (Tyr694/699) in THP-1 cell line. Kind of experiment: IFNa-stimulated JAK1/TYK2 pSTAT5 (Tyr694/699) inhibition cellular assay, AlphaLISA. The class given is cell-based. As to conditions: Homo sapiens; THP-1 cells, IFNa-stimulated, AlphaLISA (Assay B); read-out: Cellular THP1_IFNa-pSTATS_IC50. The method, boiled down:
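THP-1 cells (2e4/well) in HBSS preincubated 1 h at 37° C. with compound (final 10000–0.04 nM, 8 points, 6-fold), then stimulated with IFNa (100 ng/mL stock) for 30 min before lysis. pSTAT5 (Tyr694/699) read by AlphaLISA at 615 nm; IC50 from four-parameter logistic fit with bottom fixed at 0 and Hill slope at −1.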

T1 sequence (P29597 589-875 limits assumed): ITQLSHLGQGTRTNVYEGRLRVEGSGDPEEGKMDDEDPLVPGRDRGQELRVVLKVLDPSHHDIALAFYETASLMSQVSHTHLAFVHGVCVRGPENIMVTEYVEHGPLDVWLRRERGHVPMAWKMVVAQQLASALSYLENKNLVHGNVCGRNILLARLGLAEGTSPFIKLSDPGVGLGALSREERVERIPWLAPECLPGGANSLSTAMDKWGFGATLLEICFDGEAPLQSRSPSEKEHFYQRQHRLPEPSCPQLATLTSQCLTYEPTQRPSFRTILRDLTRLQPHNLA

With `CNc1ncc(-c2conc2C)c2cc(NC(=O)C3CC3)ncc12` [Example 36, N-(8-(methylamino)-5-(3-methylisoxazol-4-yl)-2,7-naphthyridin-3-yl)cyclopropanecarboxamide], the pKd in experiment [1] is ≥ 7.00. The pIC50 in experiment [2] is < 6.30.
Taken in the same sequence, the figures for `CNc1ncc(-c2ccc(C#N)cc2)c2cc(NC(=O)C3CC3)ncc12` [Example 37, N-(5-(4-cyanophenyl)-8-(methylamino)-2,7-naphthyridin-3-yl)cyclopropanecarboxamide] were ≥ 7.00 and < 6.30.
Taken in the same sequence, the figures for `CNc1ncc(-c2cnn(CC(F)(F)F)c2)c2cc(NC(=O)C3CC3)ncc12` [Example 38, N-(8-(methylamino)-5-(1-(2,2,2-trifluoroethyl)-1H-pyrazol-4-yl)-2,7-naphthyridin-3-yl)cyclopropanecarboxamide] were ≥ 7.00 and < 6.30.
Taken in the same sequence, the figures for `CNc1ncc(-c2c(C)cnn2C2CCCCO2)c2cc(NC(=O)C3CC3)ncc12` (stereo not drawn) [Example 39, N-(5-(4-methyl-1-(tetrahydro-2H-pyran-2-yl)-1H-pyrazol-5-yl)-8-(methylamino)-2,7-naphthyridin-3-yl)cyclopropanecarboxamide] were 5.00 to 6.00 and < 6.30.
`CNc1ncc(-c2[nH]ncc2C)c2cc(NC(=O)C3CC3)ncc12` [Example 40, N-(5-(4-methyl-1H-pyrazol-5-yl)-8-(methylamino)-2,7-naphthyridin-3-yl)cyclopropanecarboxamide]: the pKd in experiment [1] was ≥ 7.00. Moreover, the pIC50 in experiment [2] is < 6.30.
The corresponding values for `CNc1ncc(-c2ccccc2C(N)=O)c2cc(NC(=O)C3CC3)ncc12` [Example 41, 2-(6-(cyclopropanecarboxamido)-1-(methylamino)-2,7-naphthyridin-4-yl)benzamide] are 6.00 to 7.00 and < 6.30.
The corresponding values for `CNc1ncc(-c2ccccc2C#N)c2cc(NC(=O)C3CC3)ncc12` [Example 42, N-(5-(2-cyanophenyl)-8-(methylamino)-2,7-naphthyridin-3-yl)cyclopropanecarboxamide] are 6.00 to 7.00 and < 6.30.
Take `CNc1ncc(Cc2ccccc2)c2cc(NC(=O)C3CC3)ncc12` [Example 43, N-(5-benzyl-8-(methylamino)-2,7-naphthyridin-3-yl)cyclopropanecarboxamide]: the pKd in experiment [1] is ≥ 7.00. In addition, the pIC50 in experiment [2] is < 6.30.
As for `CNc1ncc(CO)c2cc(NC(=O)C3CC3)ncc12` [Example 44, N-(5-(hydroxymethyl)-8-(methylamino)-2,7-naphthyridin-3-yl)cyclopropanecarboxamide], the pKd in experiment [1] was ≥ 7.00. In experiment [2], the pIC50 is < 6.30.
The corresponding values for `CNc1ncc(COc2ccccc2)c2cc(NC(=O)C3CC3)ncc12` [Example 45, N-(8-(methylamino)-5-(phenoxymethyl)-2,7-naphthyridin-3-yl)cyclopropanecarboxamide] are ≥ 7.00 and < 6.30.
Taken in the same sequence, the figures for `CNc1ncc(-c2ccc(S(C)(=O)=O)cc2)c2cc(NC(=O)C3CC3)ncc12` [Example 46, N-(8-(methylamino)-5-(4-(methylsulfonyl)phenyl)-2,7-naphthyridin-3-yl)cyclopropanecarboxamide] were ≥ 7.00 and < 6.30.
Taken in the same sequence, the figures for `CNc1ncc(-c2ccccc2SC)c2cc(NC(=O)C3CC3)ncc12` [Example 47, N-(8-(methylamino)-5-(2-(methylthio)phenyl)-2,7-naphthyridin-3-yl)cyclopropanecarboxamide] were 6.00 to 7.00 and < 6.30.
Consider `CNc1ncc(-c2ccccc2S(C)(=O)=O)c2cc(NC(=O)C3CC3)ncc12` [Example 48, N-(8-(methylamino)-5-(2-(methylsulfonyl)phenyl)-2,7-naphthyridin-3-yl)cyclopropanecarboxamide], for which the pKd in experiment [1] is 5.00 to 6.00. Also, the pIC50 in experiment [2] is < 6.30.
Consider `CNc1ncc(-c2cccc(-c3ncn(C)n3)c2OC)c2cc(NC(=O)C3CC3)ncc12` [Example 49, N-(5-(2-methoxy-3-(1-methyl-1H-1,2,4-triazol-3-yl)phenyl)-8-(methylamino)-2,7-naphthyridin-3-yl)cyclopropanecarboxamide], for which the pKd in experiment [1] was ≥ 7.00. Also, the pIC50 in experiment [2] was < 6.30.
For `CNc1ncc(-c2ccncn2)c2cc(NC(=O)C3CC3)ncc12` [Example 50, N-(8-(methylamino)-5-(pyrimidin-4-yl)-2,7-naphthyridin-3-yl)cyclopropanecarboxamide], the pKd in experiment [1] is ≥ 7.00. The pIC50 in experiment [2] is < 6.30.
`CNc1ncc(-c2ccnn2C2CCCCO2)c2cc(NC(=O)C3CC3)ncc12` (stereo not drawn) [Example 51, N-(8-(methylamino)-5-(1-(tetrahydro-2H-pyran-2-yl)-1H-pyrazol-5-yl)-2,7-naphthyridin-3-yl)cyclopropanecarboxamide]: the pKd in experiment [1] is 5.00 to 6.00. Besides, the pIC50 in experiment [2] is < 6.30.
For the compound `CNc1ncc(-c2ccn[nH]2)c2cc(NC(=O)C3CC3)ncc12` [Example 52, N-(8-(methylamino)-5-(1H-pyrazol-5-yl)-2,7-naphthyridin-3-yl)cyclopropanecarboxamide], in experiment [1], the pKd is ≥ 7.00. The pIC50 in experiment [2] is < 6.30.
The corresponding values for `CNc1ncc(-c2cccc(-c3ncn(C)n3)c2)c2cc(NC(=O)C3CC3)ncc12` [Example 53, N-(5-(3-(1-methyl-1H-1,2,4-triazol-3-yl)phenyl)-8-(methylamino)-2,7-naphthyridin-3-yl)cyclopropanecarboxamide] are ≥ 7.00 and < 6.30.
The corresponding values for `CNc1ncc(-c2cccc(-c3ncnn3C)c2)c2cc(NC(=O)C3CC3)ncc12` [Example 54, N-(5-(3-(1-methyl-1H-1,2,4-triazol-5-yl)phenyl)-8-(methylamino)-2,7-naphthyridin-3-yl)cyclopropanecarboxamide] are ≥ 7.00 and < 6.30.
Taken in the same sequence, the figures for `CNc1ncc(N2CCCC2)c2cc(NC(=O)C3CC3)ncc12` [Example 55, N-(8-(methylamino)-5-(pyrrolidin-1-yl)-2,7-naphthyridin-3-yl)cyclopropanecarboxamide] were ≥ 7.00 and < 6.30.
As for `CNc1ncc(N2CCCCC2)c2cc(NC(=O)C3CC3)ncc12` [Example 56, N-(8-(methylamino)-5-(piperidin-1-yl)-2,7-naphthyridin-3-yl)cyclopropanecarboxamide], in experiment [1], the pKd was ≥ 7.00. Moreover, in experiment [2], the pIC50 was < 6.30.
The corresponding values for `CNc1ncc(-n2cccn2)c2cc(NC(=O)C3CC3)ncc12` [Example 57, N-(8-(methylamino)-5-(1H-pyrazol-1-yl)-2,7-naphthyridin-3-yl)cyclopropanecarboxamide] are ≥ 7.00 and < 6.30.
As for `CNc1ncc(-c2nccs2)c2cc(NC(=O)C3CC3)ncc12` [Example 63, N-(8-(methylamino)-5-(thiazol-2-yl)-2,7-naphthyridin-3-yl)cyclopropanecarboxamide], in experiment [1], the pKd is ≥ 7.00. For the same compound, the pIC50 in experiment [2] is < 6.30.
The corresponding values for `CNc1ncc(-c2ccn(CC(F)(F)F)n2)c2cc(NC(=O)C3CC3)ncc12` [Example 64, N-(8-(methylamino)-5-(1-(2,2,2-trifluoroethyl)-1H-pyrazol-3-yl)-2,7-naphthyridin-3-yl)cyclopropanecarboxamide] are ≥ 7.00 and ≥ 6.30.
